16 compounds from US11297838B2, “Pesticidal compositions and methods” (CORTEVA AGRISCIENCE LLC, priority 2018, dated 2022) can be followed below.

What all share (format): in vivo
Data set [1] has as its system Yellow Fever Mosquito (Aedes aegypti, AEDSAE). The settings on record: about 1 day-old larvae, 4000 ppm master solution diluted, 3 days, room temperature. The protocol:
Insecticidal Test for Yellow Fever Mosquito (Aedes aegypti, AEDSAE) (“YFM”)
Master plates containing 400 μg of a molecule dissolved in 100 μL of dimethyl sulfoxide (DMSO) (equivalent to a 4000 ppm solution) are used. A master plate of assembled molecules contains 15 μL per well. To this plate, 135 μL of a 90:10 water/acetone mixture is added to each well. A robot (Biomek® NXP Laboratory Automation Workstation) is programmed to dispense 15 μL aspirations from the master plate into an empty 96-well shallow plate (“daughter” plate). There are 6 reps (“daughter” plates) created per master. The created “daughter” plates are then immediately infested with YFM larvae.
The day before plates are to be treated, mosquito eggs are placed in Millipore water containing liver powder to begin hatching (4 g. into 400 mL). After the “daughter” plates are created using the robot, they are infested with 220 μL of the liver powder/larval mosquito mixture (about 1 day-old larvae). After plates are infested with mosquito larvae, a non-evaporative lid is used to cover the plate to reduce drying. Plates are held at room temperature for 3 days prior to grading. After 3 days, each well is observed and scored based on mortality. In the reporting of the results, the “YFM Rating Table” was used.

Data set [2] concerns Cabbage Looper (Trichloplusia ni, TRIPNI). Put plainly: Insecticidal test for cabbage looper (CL), 128-well diet tray assay. The settings on record: Trichoplusia ni, 168 h; 50 μg/cm^2 on artificial diet, second instar larvae, five to seven days, 25° C.; read-out: CL rating, % Control (or Mortality). The method, then: Insecticidal Test for Cabbage Looper (Trichloplusia ni, TRIPNI) (“CL”)
Bioassays on cabbage looper (CL; Trichloplusia ni: Lepidoptera) are conducted using a 128-well diet tray assay. One to five second instar CL larvae are placed in each well (3 mL) of the diet tray that had been previously filled with 1 mL of artificial diet to which 50 μg/cm^2 of the test compound (dissolved in 50 μL of 90:10 acetone-water mixture) had been applied (to each of eight wells) and then allowed to dry. Trays are covered with a clear self-adhesive cover, vented to allow gas exchange, and held at 25° C., 14:10 light-dark for five to seven days. Percent mortality is recorded for the larvae in each well; activity in the eight wells is then averaged. In the reporting of the results, the “BAW & CL Rating Table” was used.

Data set [3] relates to Beet Armyworm (Spodoptera exigua, LAPHEG). Put plainly: Insecticidal test for beet armyworm (BAW), 128-well diet tray assay. The settings on record: 168 h, 50 μg/cm^2 on artificial diet, second instar larvae, five to seven days, 25° C., read-out: BAW rating, % Control (or Mortality). The protocol:
Insecticidal Test for Beet Armyworm (Spodoptera exigua, LAPHEG) (“BAW”)
Bioassays on beet armyworm (BAW; Spodoptera exigua: Lepidoptera) are conducted using a 128-well diet tray assay. One to five second instar BAW larvae are placed in each well (3 mL) of the diet tray that had been previously filled with 1 mL of artificial diet to which 50 μg/cm^2 of the test compound (dissolved in 50 μL of 90:10 acetone-water mixture) had been applied (to each of eight wells) and then allowed to dry. Trays are covered with a clear self-adhesive cover, vented to allow gas exchange, and held at 25° C., 14:10 light-dark for five to seven days. Percent mortality is recorded for the larvae in each well; activity in the eight wells is then averaged. In the reporting of the results, the “BAW & CL Rating Table” was used.

Take `Cc1cc(N2C(=O)CS/C2=N\C(=O)OCCc2ccc(-c3ncn(-c4ccc(OC(F)(F)F)cc4)n3)cc2)c(C(C)C)cc1F` [A17, 4-(1-(4-(Trifluoromethoxy)phenyl)-1H-1,2,4-triazol-3-yl)phenethyl (Z)-(3-(4-fluoro-2-isopropyl-5-methylphenyl)-4-oxothiazolidin-2-ylidene)carbamate]: the “YFM rating, % Control (or Mortality)” value in data set [1] was “A (80-100)”. Further, the mortality at 50 µg/cm2 in data set [2] and in data set [3] was 50 to 100% throughout.
`CCOc1ccccc1N1C(=O)CS/C1=N\C(=O)OCCc1ccc(-c2ncn(-c3ccc(OC(F)(F)F)cc3)n2)cc1` [A5, 4-(1-(4-(Trifluoromethoxy)phenyl)-1H-1,2,4-triazol-3-yl)phenethyl (Z)-(3-(2-ethoxyphenyl)-4-oxothiazolidin-2-ylidene)carbamate]: the “YFM rating, % Control (or Mortality)” value in data set [1] is “A (80-100)”. The mortality at 50 µg/cm2 lay in the range of 50 to 100% in data set [2] and 0 to 50% in data set [3].
With `CCCCc1ccccc1N1C(=O)CS/C1=N\C(=O)OCCc1ccc(-c2ncn(-c3ccc(OC(F)(F)F)cc3)n2)cc1` [A6, 4-(1-(4-(Trifluoromethoxy)phenyl)-1H-1,2,4-triazol-3-yl)phenethyl (Z)-(3-(2-butylphenyl)-4-oxothiazolidin-2-ylidene)carbamate], the “YFM rating, % Control (or Mortality)” value in data set [1] was “A (80-100)”. For the same compound, the mortality at 50 µg/cm2 in data set [2] and in data set [3] was 50 to 100% throughout.
`CCCc1ccc(C)cc1N1C(=O)CS/C1=N\C(=O)OCCc1ccc(-c2ncn(-c3ccc(OC(F)(F)F)cc3)n2)cc1` [A15, 4-(1-(4-(Trifluoromethoxy)phenyl)-1H-1,2,4-triazol-3-yl)phenethyl (Z)-(3-(5-methyl-2-propylphenyl)-4-oxothiazolidin-2-ylidene)carbamate]: in data set [1], the “YFM rating, % Control (or Mortality)” value is given as “A (80-100)”. In addition, the mortality at 50 µg/cm2 in data set [2] and in data set [3] was 50 to 100% in each case.
As for `COc1ccc(C)cc1N1C(=O)CS/C1=N\C(=O)OCCc1ccc(-c2ncn(-c3ccc(OC(F)(F)F)cc3)n2)cc1` [A13, 4-(1-(4-(Trifluoromethoxy)phenyl)-1H-1,2,4-triazol-3-yl)phenethyl (Z)-(3-(2-methoxy-5-methylphenyl)-4-oxothiazolidin-2-ylidene)carbamate], in data set [1], the “YFM rating, % Control (or Mortality)” value is “A (80-100)”. Moreover, the mortality at 50 µg/cm2 in data set [2] and in data set [3] was 50 to 100% each time.
On to `O=C(/N=C1\SCC(=O)N1c1ccccc1/C=C/C(F)(F)F)OCCc1ccc(-c2ncn(-c3ccc(OC(F)(F)F)cc3)n2)cc1` [A9, 4-(1-(4-(Trifluoromethoxy)phenyl)-1H-1,2,4-triazol-3-yl)phenethyl ((Z)-4-oxo-3-(2-((E)-3,3,3-trifluoroprop-1-en-1-yl)phenyl)thiazolidin-2-ylidene)carbamate], for which, in data set [1], the “YFM rating, % Control (or Mortality)” value is “A (80-100)”. For the same compound, the mortality at 50 µg/cm2 in data set [2] and in data set [3] was 50 to 100% throughout.
As to `Cc1ccc(F)c(N2C(=O)CS/C2=N\C(=O)OCCc2ccc(-c3ncn(-c4ccc(OC(F)(F)F)cc4)n3)cc2)c1` [A11, 4-(1-(4-(Trifluoromethoxy)phenyl)-1H-1,2,4-triazol-3-yl)phenethyl (Z)-(3-(2-fluoro-5-methylphenyl)-4-oxothiazolidin-2-ylidene)carbamate], the “YFM rating, % Control (or Mortality)” value in data set [1] is “A (80-100)”. In addition, the mortality at 50 µg/cm2 in data set [2] fell in the range of 50 to 100%; in data set [3] it was 0 to 50%.
The corresponding values for `Cc1ccc(C(F)(F)F)c(N2C(=O)CS/C2=N\C(=O)OCCc2ccc(-c3ncn(-c4ccc(OC(F)(F)F)cc4)n3)cc2)c1` [A14, 4-(1-(4-(Trifluoromethoxy)phenyl)-1H-1,2,4-triazol-3-yl)phenethyl (Z)-(3-(5-methyl-2-(trifluoromethyl)phenyl)-4-oxothiazolidin-2-ylidene)carbamate] are “A (80-100)”, 50 to 100% and 50 to 100%.
Consider `O=C(/N=C1\SCC(=O)N1c1ccccc1CCC1CC1)OCCc1ccc(-c2ncn(-c3ccc(OC(F)(F)F)cc3)n2)cc1` [A7, 4-(1-(4-(Trifluoromethoxy)phenyl)-1H-1,2,4-triazol-3-yl)phenethyl (Z)-(3-(2-(2-cyclopropylethyl)phenyl)-4-oxothiazolidin-2-ylidene)carbamate], for which the “YFM rating, % Control (or Mortality)” value in data set [1] was “A (80-100)”. The mortality at 50 µg/cm2 in data set [2] was in the range of 50 to 100%; in data set [3] it was 0 to 50%.
The matching figures for `Cc1ccc(C(C)C)c(N2C(=O)CS/C2=N\C(=O)OC(C)Cc2ccc(-c3ncn(-c4ccc(OC(F)(F)F)cc4)n3)cc2)c1` (stereo not drawn) [A19, 1-(4-(1-(4-(Trifluoromethoxy)phenyl)-1H-1,2,4-triazol-3-yl)phenyl)propan-2-yl (Z)-(3-(2-isopropyl-5-methylphenyl)-4-oxothiazolidin-2-ylidene)carbamate]: “B (More than 0-Less than 80)”, 50 to 100% and 50 to 100%.
The matching figures for `CCOc1ccc(C)cc1N1C(=O)CS/C1=N\C(=O)OCCc1ccc(-c2ncn(-c3ccc(OC(F)(F)F)cc3)n2)cc1` [A16, 4-(1-(4-(Trifluoromethoxy)phenyl)-1H-1,2,4-triazol-3-yl)phenethyl (Z)-(3-(2-ethoxy-5-methylphenyl)-4-oxothiazolidin-2-ylidene)carbamate]: “A (80-100)”, 50 to 100% and 50 to 100%.
The matching figures for `COc1ccc(N2C(=O)CS/C2=N\C(=O)OCCc2ccc(-c3ncn(-c4ccc(OC(F)(F)F)cc4)n3)cc2)c(C)c1` [A10, 4-(1-(4-(Trifluoromethoxy)phenyl)-1H-1,2,4-triazol-3-yl)phenethyl (Z)-(3-(4-methoxy-2-methylphenyl)-4-oxothiazolidin-2-ylidene)carbamate]: “A (80-100)”, 50 to 100% and 0%.
Turning to `CC(C)c1ccccc1N1C(=O)CS/C1=N\C(=O)OCCc1ccc(-c2ncn(-c3ccc(OC(F)(F)F)cc3)n2)cc1` [A2, 4-(1-(4-(Trifluoromethoxy)phenyl)-1H-1,2,4-triazol-3-yl)phenethyl (Z)-(3-(2-isopropylphenyl)-4-oxothiazolidin-2-ylidene)carbamate], the “YFM rating, % Control (or Mortality)” value in data set [1] is recorded as “A (80-100)”. Besides, the mortality at 50 µg/cm2 in data set [2] and in data set [3] was 50 to 100% each time.
In the case of `O=C(/N=C1\SCC(=O)N1c1cccc2c1CCCC2)OCC(F)c1ccc(-c2ncn(-c3ccc(OC(F)(F)F)cc3)n2)cc1` (stereo not drawn) [A39, 2-Fluoro-2-(4-(1-(4-(trifluoromethoxy)phenyl)-1H-1,2,4-triazol-3-yl)phenyl)ethyl (Z)-(4-oxo-3-(5,6,7,8-tetrahydronaphthalen-1-yl)thiazolidin-2-ylidene)carbamate], the mortality at 50 µg/cm2 in data set [2] and in data set [3] was 50 to 100% in each case.
On to `CC(C)c1ccccc1N1C(=O)CS/C1=N\C(=O)OCC(F)c1ccc(-c2ncn(-c3ccc(OC(F)(F)F)cc3)n2)cc1` (stereo not drawn) [A34, 2-Fluoro-2-(4-(1-(4-(trifluoromethoxy)phenyl)-1H-1,2,4-triazol-3-yl)phenyl)ethyl (Z)-(3-(2-isopropylphenyl)-4-oxothiazolidin-2-ylidene)carbamate], for which the mortality at 50 µg/cm2 in data set [2] and in data set [3] was 50 to 100% throughout.
Take `CC(C)c1ccccc1N1C(=O)CS/C1=N\C(=O)OCC(F)c1ccc(-c2ncn(-c3ccc(OC(F)(F)C(F)(F)F)cc3)n2)cc1` (stereo not drawn) [A24, 2-Fluoro-2-(4-(1-(4-(perfluoroethoxy)phenyl)-1H-1,2,4-triazol-3-yl)phenyl)ethyl (Z)-(3-(2-isopropylphenyl)-4-oxothiazolidin-2-ylidene)carbamate]: the mortality at 50 µg/cm2 in data set [2] and in data set [3] was 50 to 100% in each case.
